# Test results published in patent publication US20020026053A1, “Novel 3-(substituted) -2- indolinones compounds and use thereof as inhibitors of protein kinase activity” (priority 1997, published 2002).
# Test system: FLK-1 receptor
# Experiment: FLK-1 Assay (cellular/catalytic ELISA, VEGF-stimulated phosphotyrosine)
# Type: cell-based
# Set-up: concentration or dose not given beside the values
# Conditions: protocol P.110
# How it was run: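 NIH3T3 C7#3 cells engineered to express Flk-1 were serum-starved overnight (0.1% FBS), then exposed to compound for 2 h at 37 °C (final dilution 1:200, 0.5% DMSO) before VEGF stimulation. Lysates captured on anti-FLK-1 antiserum plates; phosphotyrosine detected by UB40 antibody/POD-ABTS ELISA versus untreated controls.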
row,Compound,Flk Kinase % Inhibition (P.110)
1,O=C1Nc2ccc(CCCl)cc2C1=Cc1ccc(CO)o1 [10739/G11],9.8%
2,COc1ccc(Oc2cccc(C=C3C(=O)Nc4ccc(S(=O)(=O)Nc5ccc(C(F)(F)F)cc5)cc43)c2)cc1 [10739/E08],17.2%
3,COc1ccc(C=C2C(=O)Nc3ccc(S(=O)(=O)N4CCOCC4)cc32)cc1C [10739/F02],25.5%
4,COc1ccc(Oc2cccc(C=C3C(=O)Nc4ccc(S(=O)(=O)N5CCOCC5)cc43)c2)cc1 [10739/F08],7.0%
5,O=C1Nc2ccc(CCCl)cc2C1=CC1COc2ccccc2O1 (stereo not drawn) [10739/G05],10.7%
6,O=C1Nc2ccc(CCCl)cc2C1=Cc1ccc(OCc2ccccc2)cc1 [10739/G04],4.5%
7,COc1ccc(C=C2C(=O)Nc3c(Br)cc(Br)c(C)c32)cc1C [10739/H02],2.2%
8,COc1ccc(Oc2cccc(C=C3C(=O)Nc4c(Br)cc(Br)c(C)c43)c2)cc1 [10739/H08],4.0%
9,Cc1c(Br)ccc2c1C(=Cc1cc(O)c(O)c(O)c1)C(=O)N2 [10739/C07],−14.5%
10,Cc1c(Br)ccc2c1C(=Cc1ccc(OCc3ccccc3)cc1)C(=O)N2 [10739/C04],21.8%
11,O=C1Nc2ccc(S(=O)(=O)N3CCOCC3)cc2C1=Cc1ccc(CO)o1 [10739/F11],11.9%
12,Cc1c(Br)ccc2c1C(=CC1COc3ccccc3O1)C(=O)N2 (stereo not drawn) [10739/C05],5.6%
13,Cc1c(Br)ccc2c1C(=Cc1ccoc1)C(=O)N2 [10739/C10],−7.1%
14,O=C1Nc2c(Br)cc(Br)cc2C1=Cc1ccoc1 [10739/A10],−2.5%
15,CNS(=O)(=O)c1ccc2c(c1)C(=Cc1ccc(OCc3ccccc3)cc1)C(=O)N2 [10739/D04],11.8%
16,CNS(=O)(=O)c1ccc2c(c1)C(=Cc1cccc(Oc3ccc(OC)cc3)c1)C(=O)N2 [10739/D08],14.3%
17,O=C1Nc2ccc(I)cc2C1=Cc1cc(O)c(O)c(O)c1 [10739/B07],1.1%
18,CNS(=O)(=O)c1ccc2c(c1)C(=Cc1ccc(OCCCN(C)C)cc1)C(=O)N2 [10739/D09],−32.8%
19,Cc1c(Br)cc(Br)c2c1C(=Cc1ccc(Cl)c(Cl)c1)C(=O)N2 [10738/H08],−12.7%
20,Cc1c(Br)cc(Br)c2c1C(=Cc1cc(O)c(O)c(O)c1)C(=O)N2 [10739/H07],−1.4%
21,Cc1c(Br)cc(Br)c2c1C(=Cc1ccc(OCc3ccccc3)cc1)C(=O)N2 [10739/H04],9.9%
22,O=C1Nc2ccc(I)cc2C1=Cc1cccc(OCc2ccccc2)c1 [10739/B03],3.5%
23,O=C1Nc2ccc(CCCl)cc2C1=Cc1cccc(OCc2ccccc2)c1 [10739/G03],1.9%
24,Cc1c(Br)ccc2c1C(=Cc1ccc(OCCCN(C)C)cc1)C(=O)N2 [10739/C09],10.0%
25,O=C1Nc2c(Br)cc(Br)cc2C1=CC1COc2ccccc2O1 (stereo not drawn) [10739/A05],−11.0%
26,O=C1Nc2ccc(I)cc2C1=Cc1ccc(OCc2ccccc2)cc1 [10739/B04],13.2%

row,Compound,Flk Kinase % Inhibition (P.110)
1,O=C1Nc2ccc(CCCl)cc2C1=Cc1ccc(O)cc1Cl [10739/G06],14.0%
2,O=C1Nc2ccc(I)cc2C1=CC1COc2ccccc2O1 (stereo not drawn) [10739/B05],4.1%
3,O=C1Nc2c(Br)cc(Br)cc2C1=Cc1cc(O)c(O)c(O)c1 [10739/A07],4.1%
4,O=C1Nc2ccc(CCCl)cc2C1=Cc1ccoc1 [10739/G10],−2.0%
5,COc1ccc(C=C2C(=O)Nc3ccc(Br)c(C)c32)cc1C [10739/C02],−10.8%
6,Cc1c(Br)cc(Br)c2c1C(=Cc1cccc(OCc3ccccc3)c1)C(=O)N2 [10739/H03],1.6%
7,CNS(=O)(=O)c1ccc2c(c1)C(=Cc1ccc(O)cc1Cl)C(=O)N2 [10739/D06],9.0%
8,O=C1Nc2ccc(S(=O)(=O)N3CCOCC3)cc2C1=Cc1ccc(OCc2ccccc2)cc1 [10739/F04],26.3%
9,COc1ccc(C=C2C(=O)Nc3ccc(I)cc32)cc1C [10739/B02],2.1%
10,O=C1Nc2ccc(S(=O)(=O)N3CCOCC3)cc2C1=CC1COc2ccccc2O1 (stereo not drawn) [10739/F05],8.7%
11,O=C1Nc2c(Br)cc(Br)cc2C1=Cc1cccc(OCc2ccccc2)c1 [10739/A03],2.9%
12,O=C1Nc2c(Br)cc(Br)cc2C1=Cc1ccc(CO)o1 [10739/A11],3.9%
13,O=C1Nc2ccc(S(=O)(=O)Nc3ccc(C(F)(F)F)cc3)cc2C1=Cc1cccc(OCc2ccccc2)c1 [10739/E03],−119.0%
14,COc1ccc(C=C2C(=O)Nc3ccc(CCCl)cc32)cc1C [10739/G02],5.9%
15,O=C1Nc2ccc(S(=O)(=O)Nc3ccc(C(F)(F)F)cc3)cc2C1=CC1COc2ccccc2O1 (stereo not drawn) [10739/E05],28.0%
16,O=C1Nc2ccc(S(=O)(=O)Nc3ccc(C(F)(F)F)cc3)cc2C1=Cc1ccoc1 [10739/E10],11.2%
17,Cc1c(Br)cc(Br)c2c1C(=Cc1ccc(O)cc1Cl)C(=O)N2 [10739/H06],35.6%
18,COc1ccc(Oc2cccc(C=C3C(=O)Nc4ccc(CCCl)cc43)c2)cc1 [10739/G08],15.0%
19,O=C1Nc2ccc(S(=O)(=O)Nc3ccc(C(F)(F)F)cc3)cc2C1=Cc1ccc(OCc2ccccc2)cc1 [10739/E04],17.7%
20,O=C1Nc2ccc(I)cc2C1=Cc1ccoc1 [10739/B10],−10.1%
21,CN(C)CCCOc1ccc(C=C2C(=O)Nc3ccc(I)cc32)cc1 [10739/B09],−15.4%
22,CN(C)CCCOc1ccc(C=C2C(=O)Nc3c(Br)cc(Br)cc32)cc1 [10739/A09],−9.1%
23,O=C1Nc2ccc(S(=O)(=O)N3CCOCC3)cc2C1=Cc1ccoc1 [10739/F10],12.3%
24,COc1ccccc1C=C1C(=O)Nc2c(Br)cc(Br)c(C)c21 [10738/H09],−6.5%
25,O=C1Nc2ccc(S(=O)(=O)Nc3ccc(C(F)(F)F)cc3)cc2C1=Cc1ccc(CO)o1 [10739/E11],15.3%
26,O=C1Nc2c(Br)cc(Br)cc2C1=Cc1ccc(OCc2ccccc2)cc1 [10739/A04],−8.2%

row,Compound,Flk Kinase % Inhibition (P.110)
1,Cc1c(Br)ccc2c1C(=Cc1cccc(OCc3ccccc3)c1)C(=O)N2 [10739/C03],16.4%
2,COc1ccc(C=C2C(=O)Nc3c(Br)cc(Br)cc32)cc1C [10739/A02],1.2%
3,O=C1Nc2ccc(S(=O)(=O)N3CCOCC3)cc2C1=Cc1cccc(OCc2ccccc2)c1 [10739/F03],24.5%
4,CNS(=O)(=O)c1ccc2c(c1)C(=Cc1ccc(OC)c(C)c1)C(=O)N2 [10739/D02],25.6%
5,CNS(=O)(=O)c1ccc2c(c1)C(=Cc1cc(O)c(O)c(O)c1)C(=O)N2 [10739/D07],−5.1%
6,CCCOc1ccc(C=C2C(=O)Nc3c(Br)cc(Br)c(C)c32)cc1 [10738/H11],−4.1%
7,Cc1c(Br)cc(Br)c2c1C(=Cc1cc(O)cc(O)c1)C(=O)N2 [10738/H07],−17.4%
8,O=C1Nc2ccc(S(=O)(=O)Nc3ccc(C(F)(F)F)cc3)cc2C1=Cc1cc(O)c(O)c(O)c1 [10739/E07],10.0%
9,CNS(=O)(=O)c1ccc2c(c1)C(=Cc1cccc(OCc3ccccc3)c1)C(=O)N2 [10739/D03],−18.3%
10,COc1ccc(C=C2C(=O)Nc3ccc(S(=O)(=O)Nc4ccc(C(F)(F)F)cc4)cc32)cc1C [10739/E02],26.7%
11,O=C1Nc2ccc(I)cc2C1=Cc1ccc(O)cc1Cl [10739/B06],9.3%
12,Cc1c(Br)cc(Br)c2c1C(=Cc1ccc(C(C)C)cc1)C(=O)N2 [10738/H10],1.7%
13,COc1ccc(Oc2cccc(C=C3C(=O)Nc4ccc(I)cc43)c2)cc1 [10739/B08],6.5%
14,O=C1Nc2ccc(S(=O)(=O)N3CCOCC3)cc2C1=Cc1cc(O)c(O)c(O)c1 [10739/F07],0.6%
15,Cc1c(Br)ccc2c1C(=Cc1ccc(O)cc1Cl)C(=O)N2 [10739/C06],17.7%
16,O=C1Nc2ccc(S(=O)(=O)N3CCOCC3)cc2C1=Cc1ccc(O)cc1Cl [10739/F06],13.7%
17,COc1ccc(Oc2cccc(C=C3C(=O)Nc4ccc(Br)c(C)c43)c2)cc1 [10739/C08],4.8%
18,CN(C)CCCOc1ccc(C=C2C(=O)Nc3ccc(S(=O)(=O)N4CCOCC4)cc32)cc1 [10739/F09],15.6%
19,O=C1Nc2ccc(CCCl)cc2C1=Cc1cc(O)c(O)c(O)c1 [10739/G07],−4.9%
20,COc1ccc(Oc2cccc(C=C3C(=O)Nc4c(Br)cc(Br)cc43)c2)cc1 [10739/A08],−25.5%
21,O=C1Nc2ccc(S(=O)(=O)Nc3ccc(C(F)(F)F)cc3)cc2C1=Cc1ccc(O)cc1Cl [10739/E06],34.3%
22,O=C1Nc2c(Br)cc(Br)cc2C1=Cc1ccc(O)cc1Cl [10739/A06],7.4%
23,Cc1c(Br)cc(Br)c2c1C(=Cc1ccoc1)C(=O)N2 [10739/H10],15.0%
24,CN(C)CCCOc1ccc(C=C2C(=O)Nc3ccc(S(=O)(=O)Nc4ccc(C(F)(F)F)cc4)cc32)cc1 [10739/E09],24.5%
25,CN(C)CCCOc1ccc(C=C2C(=O)Nc3ccc(CCCl)cc32)cc1 [10739/G09],3.1%
26,CNS(=O)(=O)c1ccc2c(c1)C(=CC1COc3ccccc3O1)C(=O)N2 (stereo not drawn) [10739/D05],12.2%
